Like-named read-outs stand apart in the source and are kept apart here.

This experiment deals with cocaine aptamer. As to conditions: for Kd: read-out: dissociation constant Kd.

One may read the Kd as the equilibrium constant for the complex coming apart. Turning to `COC(=O)c1ccccc1` [methyl benzoate], the Kd is 87.7 µM (Comparative Example 1: 1 mM methyl benzoate titrated into 50 μM cocaine aptamer in D-PBS(−), no tropane derivative, binding order 1) and 69.7 µM (Example 1: 1 mM methyl benzoate titrated into 50 μM cocaine aptamer in D-PBS(−) containing 10 μM tropine).
`CN1[C@@H]2CC[C@H]1C[C@@H](O)C2` [tropine]: the ITC heat generation entry is, setting by setting: (Comparative Example 2: 1 mM tropine titrated into 50 μM cocaine aptamer in D-PBS(−)) “no heat generation was observed”; (Comparative Example 3: 1 mM tropine titrated into 50 μM cocaine aptamer in D-PBS(−) containing 10 μM methyl benzoate) “no heat generation was observed”.

Values taken from patent US12540913B2, “Chemical sensor, reagent, and method for detecting benzoic acid and benzoic acid derivative” (KABUSHIKI KAISHA TOSHIBA, priority 2023, dated 2026).
